The results in this text go back to ChEMBL document CHEMBL5329155, “Synthesis and pharmacological evaluation of 1,3-diaryl substituted pyrazole based (thio)urea derivatives as potent antimicrobial agents against multi-drug resistant Staphylococcus aureus and Mycobacterium tuberculosis” (RSC Med Chem, 2023).

Values after ≈ are worked out from the molar mass of the structure shown.

Series [1] deals with Mycobacterium tuberculosis. The series is described as follows: Antimycobacterial activity against Mycobacterium tuberculosis H37Rv assessed as reduction in bacterial growth. The class given is functional.
Series [2] concerns Staphylococcus aureus. Kind of series: Antibacterial activity against methicillin/ceftriaxone/meropenem resistant Staphylococcus aureus NRS 129 assessed as reduction in bacterial growth incubated for 18 to 24 hrs by broth dilution method. It is filed as functional. The settings on record: time 18-24 hrs. (In general: Dilution methods test growth across graded concentrations, often in twofold steps.)

Series [3] deals with Staphylococcus aureus. The series is described as follows: Antibacterial activity against methicillin/ceftriaxone/meropenem/gentamycin/linezolid resistant Staphylococcus aureus NRS 119 assessed as reduction in bacterial growth incubated for 18 to 24 hrs by broth dilution method. It is filed as functional. Conditions: time 18-24 hrs.
In series [4] the test system is Staphylococcus aureus. Kind of series: Antibacterial activity against methicillin/ceftriaxone/meropenem/vancomycin/teicoplanin resistant Staphylococcus aureus VRS 4 assessed as reduction in bacterial growth incubated for 18 to 24 hrs by broth dilution method. The class given is functional. Conditions: time 18-24 hrs.
Series [5] deals with Staphylococcus aureus. Kind of series: Antibacterial activity against methicillin/ceftriaxone/meropenem resistant Staphylococcus aureus NRS 193 assessed as reduction in bacterial growth incubated for 18 to 24 hrs by broth dilution method. The class given is functional. Conditions: time 18-24 hrs.
Series [6] relates to Staphylococcus aureus. The series is described as follows: Antibacterial activity against methicillin/ceftriaxone/meropenem resistant Staphylococcus aureus NRS 192 assessed as reduction in bacterial growth incubated for 18 to 24 hrs by broth dilution method. The class given is functional. The settings on record: time 18-24 hrs.
The test system of series [7] is Staphylococcus aureus. Kind of series: Antibacterial activity against methicillin/ceftriaxone/meropenem resistant Staphylococcus aureus NRS 186 assessed as reduction in bacterial growth incubated for 18 to 24 hrs by broth dilution method. The class given is functional. Conditions: time 18-24 hrs.
For series [8], the system named is Staphylococcus aureus. Kind of series: Antibacterial activity against methicillin/ceftriaxone/meropenem resistant Staphylococcus aureus NRS 198 assessed as reduction in bacterial growth incubated for 18 to 24 hrs by broth dilution method. The settings on record: time 18-24 hrs. It is filed as functional.
In series [9] the test system is Staphylococcus aureus. Kind of series: Antibacterial activity against methicillin-susceptible Staphylococcus aureus assessed as reduction in bacterial growth incubated for 18 to 24 hrs by broth dilution method. It is filed as functional. The settings on record: time 18-24 hrs.
Series [10] deals with Staphylococcus aureus. Kind of series: Antibacterial activity against methicillin/ceftriaxone/meropenem/gentamycin/vancomycin/teicoplanin resistant Staphylococcus aureus VRS 1 assessed as reduction in bacterial growth incubated for 18 to 24 hrs by broth dilution method. It is filed as functional. Conditions: time 18-24 hrs.
Series [11] has as its system Staphylococcus aureus. Kind of series: Antibacterial activity against methicillin/ceftriaxone/meropenem/gentamycin/linezolid resistant Staphylococcus aureus NRS 100 assessed as reduction in bacterial growth incubated for 18 to 24 hrs by broth dilution method. The class given is functional. The settings on record: time 18-24 hrs.
For series [12], the system named is Staphylococcus aureus. Kind of series: Antibacterial activity against methicillin/ceftriaxone resistant Staphylococcus aureus NRS 194 assessed as reduction in bacterial growth incubated for 18 to 24 hrs by broth dilution method. The class given is functional. Conditions: time 18-24 hrs.
In series [13] the test system is Staphylococcus aureus. The series is described as follows: Antibacterial activity against methicillin/ceftriaxone/meropenem/vancomycin/teicoplanin resistant Staphylococcus aureus VRS 12 assessed as reduction in bacterial growth incubated for 18 to 24 hrs by broth dilution method. It is filed as functional. Conditions: time 18-24 hrs.
The test system of series [14] is Staphylococcus aureus. The series is described as follows: Antibacterial activity against methicillin/ceftriaxone/meropenem resistant Staphylococcus aureus NRS 191 assessed as reduction in bacterial growth incubated for 18 to 24 hrs by broth dilution method. The class given is functional. The settings on record: time 18-24 hrs.
In series [15] the test system is Mycobacterium tuberculosis. The series is described as follows: Antimycobacterial activity against isoniazid-resisitant Mycobacterium tuberculosis ATCC 35822 assessed as inhibition of bacterial growth incubated for 18 to 24 hrs by broth dilution method. The class given is functional. Conditions: time 18-24 hrs.
Series [16] has as its system Mycobacterium tuberculosis. Kind of series: Antimycobacterial activity against streptomycin-resisitant Mycobacterium tuberculosis ATCC 35820 assessed as inhibition of bacterial growth incubated for 18 to 24 hrs by broth dilution method. It is filed as functional. Conditions: time 18-24 hrs.
For series [17], the system named is Mycobacterium tuberculosis. The series is described as follows: Antimycobacterial activity against rifampicin-resisitant Mycobacterium tuberculosis ATCC 35838 assessed as inhibition of bacterial growth incubated for 18 to 24 hrs by broth dilution method. Conditions: time 18-24 hrs. The class given is functional.
Series [18] has as its system Mycobacterium tuberculosis. The series is described as follows: Antimycobacterial activity against ethambutol-resisitant Mycobacterium tuberculosis ATCC 35837 assessed as inhibition of bacterial growth incubated for 18 to 24 hrs by broth dilution method. Conditions: time 18-24 hrs. It is filed as functional.
Series [19] deals with Mycobacterium tuberculosis. Kind of series: Antimycobacterial activity against Mycobacterium tuberculosis H37Rv ATCC 27294 assessed as inhibition of bacterial growth incubated for 18 to 24 hrs by broth dilution method. The class given is functional.
Series [20] in a line: Selectivity index, ratio of CC50 for cytotoxicity against African green monkey Vero cells assessed as reduction in cell viability to MIC for antibacterial activity against Mycobacterium tuberculosis H37Rv ATCC 27294 assessed as inhibition of bacterial growth. It is filed as toxicity, cell-based. The settings on record: read-out: Selectivity Index.
A short description of series [21]: Metabolic stability in human liver microsome assessed as elimination rate constant at 1 uM preincubated for 5 mins followed by NADPH addition and measured after 60 mins by LC-MS/MS analysis. Conditions: liver microsomes, time 65 min. It is filed as ADME. (In general: Microsomes from liver hold many membrane-bound enzymes, among them those of drug oxidation.)
The test system of series [22] is Staphylococcus aureus. The series is described as follows: Antibacterial activity against Staphylococcus aureus ATCC 29213 assessed as inhibition of bacterial growth measured for 18 to 24 hrs by broth dilution method. It is filed as functional. The settings on record: time 18-24 hrs.
Series [23] can be described thus: Metabolic stability in human liver microsome assessed as intrinsic clearance at 1 uM preincubated for 5 mins followed by NADPH addition and measured after 60 mins by LC-MS/MS analysis. Conditions: liver microsomes, time 65 min, read-out: CLH. The class given is ADME.
Series [24] in a line: Metabolic stability in human liver microsome assessed as half life at 1 uM preincubated for 5 mins followed by NADPH addition and measured after 60 mins by LC-MS/MS analysis. The class given is ADME. The settings on record: liver microsomes, time 65 min.
Series [25] is described as follows: Cytotoxicity against African green monkey Vero cells assessed as reduction in cell viability incubated for 72 hrs by MTT assay. It is filed as toxicity, cell-based. The settings on record: chlorocebus sabaeus. A general note: Formazan colour is commonly taken as a measure of viable cells.
Series [26] is described as follows: Aqueous solubility of compound in phosphate buffer at pH 7.4 incubated for 16 hrs by HPLC analysis. It is filed as physicochemical.
Series [27] concerns Mycobacterium tuberculosis. Kind of series: Antimycobacterial activity against Mycobacterium tuberculosis assessed as reduction in bacterial growth. The class given is functional.
The subject of series [28] is Staphylococcus aureus. Kind of series: Antibacterial activity against methicillin-resistant Staphylococcus aureus assessed as reduction in bacterial growth. The class given is functional.

Turning to `COc1ccc(-c2nn(-c3ccc(Cl)cc3)cc2Cn2cncn2)cc1`, in [1], the minimal inhibitory concentration (MIC) is 4.4 µg/mL (≈ 12 µM).

With `C[C@@H](O)[C@H]1C(=O)N2C(C(=O)O)=C(S[C@@H]3CN[C@H](C(=O)N(C)C)C3)[C@H](C)[C@H]12` [MEROPENEM], the minimal inhibitory concentration (MIC) in the series with Staphylococcus aureus [2] is 8 µg/mL (≈ 20.9 µM); with Staphylococcus aureus [3], 64 µg/mL (≈ 167 µM); in the series with Staphylococcus aureus [4], 64 µg/mL (≈ 167 µM); in the series with Staphylococcus aureus [5], 64 µg/mL (≈ 167 µM); in the series on Staphylococcus aureus [6], 16 µg/mL (≈ 41.7 µM); with Staphylococcus aureus [7] it was 8 µg/mL (≈ 20.9 µM). The MIC was 64 µg/mL (≈ 167 µM) in the series on Staphylococcus aureus [8]; 0.125 µg/mL (≈ 0.326 µM) in the series with Staphylococcus aureus [9]; 64 µg/mL (≈ 167 µM) in the series on Staphylococcus aureus [10]; 64 µg/mL (≈ 167 µM) in the series with Staphylococcus aureus [11]; 2 µg/mL (≈ 5.22 µM) in the series with Staphylococcus aureus [12]; 2 µg/mL (≈ 5.22 µM) with Staphylococcus aureus [13]. The minimum inhibitory concentration (MIC) with Staphylococcus aureus [14] was 64 µg/mL (≈ 167 µM).

For `CN[C@H](CC(C)C)C(=O)N[C@H]1C(=O)N[C@@H](CC(N)=O)C(=O)N[C@H]2C(=O)N[C@H]3C(=O)N[C@H](C(=O)N[C@H](C(=O)O)c4cc(O)cc(O)c4-c4cc3ccc4O)[C@H](O)c3ccc(c(Cl)c3)Oc3cc2cc(c3O[C@@H]2O[C@H](CO)[C@@H](O)[C@H](O)[C@H]2O[C@H]2C[C@](C)(N)[C@H](O)[C@H](C)O2)Oc2ccc(cc2Cl)[C@H]1O` [VANCOMYCIN], the MIC with Staphylococcus aureus [4], in the series on Staphylococcus aureus [10] and in the series with Staphylococcus aureus [13] was over 64 µg/mL throughout.

For `CO[C@H]1/C=C/O[C@@]2(C)Oc3c(C)c(O)c4c(O)c(c(/C=N/N5CCN(C)CC5)c(O)c4c3C2=O)NC(=O)/C(C)=C\C=C\[C@H](C)[C@H](O)[C@@H](C)[C@@H](O)[C@@H](C)[C@H](OC(C)=O)[C@@H]1C` [RIFAMPIN], the minimal inhibitory concentration (MIC) was 0.03 µg/mL (≈ 0.0365 µM) in series [15]; 0.03 µg/mL (≈ 0.0365 µM) in [16]; 64 µg/mL (≈ 77.8 µM) in series [17]; 0.03 µg/mL (≈ 0.0365 µM) in [18]; 0.06 µg/mL (≈ 0.0729 µM) in [19].

`COc1ccc(-c2ccn(-c3ccc(NC(=O)Nc4ccc(F)cc4F)cc3)n2)cc1OC`: the selectivity ratio in [20] was over 200. In [21], the k el at 1 h, 1 µM is 8.33e-05 s⁻¹. Further, the MIC is over 64 µg/mL in series [15]; over 64 µg/mL in the series with Staphylococcus aureus [22]; over 64 µg/mL in series [16]; 4 µg/mL (≈ 8.88 µM) in series [17]; 64 µg/mL (≈ 142 µM) in [18]; 1 µg/mL (≈ 2.22 µM) in [19]. Further, in series [23], the microsomal CLint at 1 µM amounted to 10.4 µL/min/mg. The half-life at 1 µM in [24] was 2.14 h. Besides, the cytotoxic concentration (CC50) at 72 h in [25] is over 200 µg/mL. Moreover, the solubility at 16 h in [26] came to 6 µg/mL (≈ 13.3 µM).

Consider `Cc1c(C(=O)NN2CCCCC2)nn(-c2ccc(Cl)cc2Cl)c1-c1ccc(Cl)cc1` [RIMONABANT], for which the MIC in series [27] is 25 µg/mL (≈ 53.9 µM).

On to `S=C(Nc1ccc(Cl)cc1)n1ccc(OCc2ccccc2)n1`, for which the minimum inhibitory concentration (MIC) with Staphylococcus aureus [28] stood at 0.15 µM (≈ 0.0516 µg/mL).

Take `COc1ccc(-c2ccn(-c3ccc(NC(=O)NCc4ccccc4)cc3)n2)cc1OC`: in series [20], the selectivity ratio stood at 20. The results for the minimum inhibitory concentration (MIC) (with Staphylococcus aureus [22]; in series [19]) were over 64 µg/mL and 1 µg/mL (≈ 2.33 µM), respectively. For the same molecule, the CC50 at 72 h in [25] came to 20 µg/mL (≈ 46.7 µM).

One may read the MIC as the least concentration at which growth counts as inhibited. A word on the half-life: it is the time needed for the level to fall by half in the phase considered. Usually CC50 stands for the concentration at which the toxic effect on the cells reaches its halfway point. The solubility is the dissolved amount per volume that the medium holds.
